# Laboratory results as given in patent EP0286825A2, “Use of 3'-fluro-3' deoxythymidine for the manufacture of a medicament for the treatment of virus infections” (Max-Planck-Gesellschaft zur Förderung der Wissenschaften …, priority 1987, dated 1988).
# Where two headings read alike, the source gives them in different places.
# Experiments:
# [1] = tested on: HIV; test: microbe, parasite or virus in culture; format: cell-based; settings: for EC50: Human immunodeficiency virus 1, MT4, read-out: concentration of active material that protects the cells with half maximum action against the pathogenic effect of HIV
# [2] = tested on: MT₄-cells; test: Toxicity to MT4 cells in the absence of HIV, incorporation of thymidine; settings: MT₄ cells without HIV, Fig. 5, compared with the other compounds
# [3] = tested on: HIV; format: cell-based
# [4] = tested on: peripheral blood lymphocytes; test: Viability and cell number of the PHA stimulated peripheral blood lymphocytes; settings: counts from thymidine incorporation
# [5] = tested on: HIV; format: cell-based; remark: listed apart in the source
smiles,measurement,setting,value
Cc1cn([C@H]2C[C@H](F)[C@@H](CO)O2)c(=O)[nH]c1=O,EC50,[1],< 0.002 µg/mL
"[N-]=[N+]=N[C@H]1C[C@H](n2cnc3c(O)ncnc32)O[C@@H]1CO [3ʹ-azido-2ʹ,3ʹ-dideoxyinosine]",Toxicity,[2],higher
same,rate of thymidine incorporation in the HIV infected cell line,[1]; Fig. 5,nearly equalled that of non-infected T₄ cell lines
"Nc1nc2c(ncn2[C@H]2C[C@H](F)[C@@H](CO)O2)c(=O)[nH]1 [3ʹ-fluoro-2ʹ,3ʹ-dideoxyguanosine]",EC50,"[1]; MT₄-cells, 1:40 dilution of the HIV parent liquid, thymidine incorporation",< 1.5 µg/mL
same,in vitro therapeutic index,"[1]; toxic concentration compared with antiviral concentration, MT₄ human cell line",approximately 400
"Cc1cn([C@H]2C[C@H](N=[N+]=[N-])[C@@H](CO)O2)c(=O)[nH]c1=O [AZT, azido-thymidine]",%B/Bo,"[3]; AZT 0.01 uM, day 4",54.2%
same,ng p24/ml,"[3]; AZT 0.01 uM, day 4",3.6 ng p24/ml
same,%B/Bo,"[3]; AZT 0.01 uM, day 7",62.3%
same,ng p24/ml,"[3]; AZT 0.01 uM, day 7",2.7 ng p24/ml
same,%B/Bo,"[3]; AZT 0.01 uM, day 11",12.0%
same,ng p24/ml,"[3]; AZT 0.01 uM, day 11",20 ng p24/ml
same,%B/Bo,"[3]; AZT 0.01 uM, day 14",6.2%
same,ng p24/ml,"[3]; AZT 0.01 uM, day 14",20 ng p24/ml
same,%B/Bo,"[3]; AZT 0.1 uM, day 4",53.0%
same,ng p24/ml,"[3]; AZT 0.1 uM, day 4",3.7 ng p24/ml
same,%B/Bo,"[3]; AZT 0.1 uM, day 7",75.2%
same,ng p24/ml,"[3]; AZT 0.1 uM, day 7",1.6 ng p24/ml
same,%B/Bo,"[3]; AZT 0.1 uM, day 11",78.6%
same,ng p24/ml,"[3]; AZT 0.1 uM, day 11",1.3 ng p24/ml
same,%B/Bo,"[3]; AZT 0.1 uM, day 14",67.1%
same,ng p24/ml,"[3]; AZT 0.1 uM, day 14",2.3 ng p24/ml
same,%B/Bo,"[3]; AZT 1 uM, day 4",53.1%
same,ng p24/ml,"[3]; AZT 1 uM, day 4",3.7 ng p24/ml
same,%B/Bo,"[3]; AZT 1 uM, day 7",68.2%
same,ng p24/ml,"[3]; AZT 1 uM, day 7",2.2 ng p24/ml
same,%B/Bo,"[3]; AZT 1 uM, day 11",79.8%
same,ng p24/ml,"[3]; AZT 1 uM, day 11",1.25 ng p24/ml
same,%B/Bo,"[3]; AZT 1 uM, day 14",84.4%
same,ng p24/ml,"[3]; AZT 1 uM, day 14",0.94 ng p24/ml
same,toxicity against the PBL,[4],do not show toxicity
same,CPM/1+06 CELLS,"[5]; AZT 0.01UM, day 7",1.78E+03 CPM/1+06 CELLS
same,CPM/ml,"[5]; AZT 0.01UM, day 7",5.9E+03 CPM/ml
same,CPM/1+06 CELLS,"[5]; AZT 0.01UM, day 11",7.19E+03 CPM/1+06 CELLS
same,CPM/ml,"[5]; AZT 0.01UM, day 11",2.8E+04 CPM/ml
same,CPM/1+06 CELLS,"[5]; AZT 0.01UM, day 14",2.41E+04 CPM/1+06 CELLS
same,CPM/ml,"[5]; AZT 0.01UM, day 14",1.4E+05 CPM/ml
same,CPM/1+06 CELLS,"[5]; AZT 0.1UM, day 7",8.64E+01 CPM/1+06 CELLS
same,CPM/ml,"[5]; AZT 0.1UM, day 7",3.5E+02 CPM/ml
same,CPM/1+06 CELLS,"[5]; AZT 0.1UM, day 11",2.49E+02 CPM/1+06 CELLS
same,CPM/ml,"[5]; AZT 0.1UM, day 11",1.2E+03 CPM/ml
same,CPM/1+06 CELLS,"[5]; AZT 0.1UM, day 14",9.78E+02 CPM/1+06 CELLS
same,CPM/ml,"[5]; AZT 0.1UM, day 14",3.9E+03 CPM/ml
same,CPM/1+06 CELLS,"[5]; AZT 1UM, day 7",7.66E+02 CPM/1+06 CELLS
same,CPM/ml,"[5]; AZT 1UM, day 7",2.9E+03 CPM/ml
same,CPM/ml,"[5]; AZT 1UM, day 11",-8.1E+03 CPM/ml
same,CPM/1+06 CELLS,"[5]; AZT 1UM, day 14",1.55E+02 CPM/1+06 CELLS
same,CPM/ml,"[5]; AZT 1UM, day 14",5.7E+02 CPM/ml
